Data taken from US10597388B2, “Pyridazinone herbicides” (FMC CORPORATION, priority 2014, dated 2020).

Tests used:
Format in all cases: in vivo
soybean (Glycine max) = experiment: Test C greenhouse herbicide test, pre- and postemergence
In short: (§1)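 Seeds sown in loam–sand blend treated preemergence; plants in peat-based medium sprayed postemergence at 2–18 cm (1- to 4-leaf stage); chemicals in non-phytotoxic solvent with surfactant. Greenhouse 13–15 d, then visual rating versus controls on 0–100 scale (0 no effect, 100 complete control).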

[1] = tested on: oilseed rape (Brassica napus); experiment: as above
In short: as §1

[2] = tested on: ryegrass, Italian (Italian ryegrass, Lolium multiflorum); experiment: as above
In short: as §1

[3] = tested on: foxtail, giant (giant foxtail, Setaria faberii); experiment: as above
In short: as §1

[4] = tested on: pigweed (Amaranthus retroflexus); experiment: as above
In short: as §1

[5] = tested on: blackgrass (Alopecurus myosuroides); experiment: as above
In short: as §1

[6] = tested on: morningglory (Ipomoea coccinea); experiment: as above
In short: as §1

[7] = tested on: ragweed (common ragweed, Ambrosia elatior); experiment: as above
In short: as §1

[8] = tested on: nutsedge, yellow (yellow nutsedge, Cyperus esculentus); experiment: as above
In short: as §1

[9] = tested on: johnsongrass (Sorghum halepense); experiment: as above
In short: as §1

[10] = tested on: wheat (winter wheat, Triticum aestivum); experiment: as above
In short: as §1

[11] = tested on: lambsquarters (Chenopodium album); experiment: as above
In short: as §1

[12] = tested on: crabgrass, large (large crabgrass, Digitaria sanguinalis); experiment: as above
In short: as §1

corn (Zea mays) = experiment: as above
In short: as §1

[13] = tested on: waterhemp (common waterhemp, Amaranthus rudis); experiment: as above
In short: as §1

kochia (Kochia scoparia) = experiment: Test C greenhouse herbicide test, postemergence
In short: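 Steps: pot plants in peat-based medium; spray postemergence at 1- to 4-leaf stage; hold in greenhouse 13 to 15 d; score visually against controls from 0 (no effect) to 100 (complete control).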

[14] = Postemergence, 31 g ai/ha, scale 0 to 100 (0 no effect, 100 complete control)
[15] = Postemergence, 62 g ai/ha, 0 to 100 scale (0 no effect, 100 complete control)
[16] = Postemergence, 250 g ai/ha, scale 0 to 100, 0 no effect, 100 complete control, 13 to 15 d
[17] = Preemergence, 31 g ai/ha, scale 0 to 100, 0 is no effect, 100 is complete control
[18] = Preemergence, 62 g ai/ha, scale 0 to 100, 0 is no effect, 100 is complete control
[19] = Preemergence, 125 g ai/ha, scale 0 to 100, 0 is no effect, 100 is complete control
[20] = Preemergence, 250 g ai/ha, scale 0 to 100 (0 no effect, 100 complete control)
[21] = postemergence, 125 g ai/ha, scale 0 to 100, 0 no effect, 100 complete control

Cc1cc(C)c2ccccc2c1-c1c(OS(C)(=O)=O)c(C)nn(C)c1=O [Compound 154]
15: Plant response rating, Lambsquarters [11, 17] | Plant response rating, Corn (corn (Zea mays); [14])
5: Plant response rating, Soybean (soybean (Glycine max); [18]) | Plant response rating, Soybean (soybean (Glycine max); [19]) | Plant response rating, Blackgrass [5, 17] | Plant response rating, Johnsongrass [9, 14] | Johnsongrass plant response rating [9, 15] | Wheat plant response rating [10, 15] | Plant response rating, Wheat [10, 16] | Corn plant response rating (corn (Zea mays); [15]) | Plant response rating, Corn (corn (Zea mays); [16]) | Plant response rating, Corn (corn (Zea mays); [17]) | Plant response rating, Corn (corn (Zea mays); [18]) | Plant response rating, Corn (corn (Zea mays); [19]) | Corn plant response rating (corn (Zea mays); [20]) | Corn plant response rating (corn (Zea mays); [21])
90: Oilseed Rape plant response rating [1, 15] | Ryegrass, Italian plant response rating [2, 15] | Plant response rating, Ryegrass, Italian [2, 19] | Ryegrass, Italian plant response rating [2, 20] | Ryegrass, Italian plant response rating [2, 21] | Foxtail, Giant plant response rating [3, 15] | Pigweed plant response rating [4, 21] | Blackgrass plant response rating [5, 20] | Morningglory plant response rating [6, 20] | Plant response rating, Ragweed [7, 16] | Plant response rating, Ragweed [7, 19] | Plant response rating, Lambsquarters [11, 14] | Lambsquarters plant response rating [11, 21] | Plant response rating, Crabgrass, Large [12, 19]
100: Plant response rating, Foxtail, Giant [3, 19] | Foxtail, Giant plant response rating [3, 20] | Plant response rating, Pigweed [4, 19] | Pigweed plant response rating [4, 20] | Plant response rating, Morningglory [6, 16] | Crabgrass, Large plant response rating [12, 20] | Waterhemp plant response rating [13, 20]
70: Plant response rating, Ragweed [7, 14] | Plant response rating, Nutsedge, Yellow [8, 14] | Plant response rating, Nutsedge, Yellow [8, 19] | Crabgrass, Large plant response rating [12, 15] | Plant response rating, Crabgrass, Large [12, 17] | Crabgrass, Large plant response rating [12, 21] | Plant response rating, Waterhemp [13, 16]
75: Plant response rating, Oilseed Rape [1, 14] | Ragweed plant response rating [7, 15] | Johnsongrass plant response rating [9, 20] | Plant response rating, Crabgrass, Large [12, 16] | Plant response rating, Waterhemp [13, 14]
20: Soybean plant response rating (soybean (Glycine max); [15]) | Soybean plant response rating (soybean (Glycine max); [20]) | Soybean plant response rating (soybean (Glycine max); [21]) | Plant response rating, Nutsedge, Yellow [8, 18] | Plant response rating, Johnsongrass [9, 16] | Johnsongrass plant response rating [9, 21]
10: Plant response rating, Soybean (soybean (Glycine max); [14]) | Plant response rating, Johnsongrass [9, 17] | Wheat plant response rating [10, 21]
98: Plant response rating, Oilseed Rape [1, 19] | Oilseed Rape plant response rating [1, 20] | Oilseed Rape plant response rating [1, 21] | Morningglory plant response rating [6, 15] | Morningglory plant response rating [6, 21]
80: Plant response rating, Oilseed Rape [1, 17] | Plant response rating, Ryegrass, Italian [2, 14] | Plant response rating, Ragweed [7, 17] | Plant response rating, Nutsedge, Yellow [8, 16] | Waterhemp plant response rating [13, 15] | Plant response rating, Kochia (kochia (Kochia scoparia); [16])
30: Wheat plant response rating [10, 20] | Plant response rating, Waterhemp [13, 17]
45: Plant response rating, Morningglory [6, 17] | Plant response rating, Johnsongrass [9, 18]
0: Plant response rating, Soybean (soybean (Glycine max); [17]) | Plant response rating, Nutsedge, Yellow [8, 17] | Plant response rating, Wheat [10, 14] | Plant response rating, Wheat [10, 17] | Plant response rating, Wheat [10, 18] | Plant response rating, Wheat [10, 19]
85: Plant response rating, Oilseed Rape [1, 18] | Plant response rating, Foxtail, Giant [3, 14] | Plant response rating, Foxtail, Giant [3, 17] | Pigweed plant response rating [4, 15] | Plant response rating, Pigweed [4, 16] | Plant response rating, Blackgrass [5, 16] | Plant response rating, Blackgrass [5, 19] | Plant response rating, Morningglory [6, 18] | Plant response rating, Morningglory [6, 19] | Ragweed plant response rating [7, 21] | Nutsedge, Yellow plant response rating [8, 20] | Nutsedge, Yellow plant response rating [8, 21] | Lambsquarters plant response rating [11, 15] | Plant response rating, Lambsquarters [11, 19] | Plant response rating, Crabgrass, Large [12, 18] | Plant response rating, Waterhemp [13, 18] | Waterhemp plant response rating [13, 21]
40: Plant response rating, Ryegrass, Italian [2, 17]
25: Plant response rating, Soybean (soybean (Glycine max); [16])
60: Plant response rating, Blackgrass [5, 14] | Blackgrass plant response rating [5, 21] | Nutsedge, Yellow plant response rating [8, 15] | Plant response rating, Lambsquarters [11, 18] | Kochia plant response rating (kochia (Kochia scoparia); [21])
95: Plant response rating, Oilseed Rape [1, 16] | Plant response rating, Ryegrass, Italian [2, 16] | Plant response rating, Foxtail, Giant [3, 16] | Plant response rating, Foxtail, Giant [3, 18] | Foxtail, Giant plant response rating [3, 21] | Plant response rating, Pigweed [4, 18] | Plant response rating, Morningglory [6, 14] | Plant response rating, Ragweed [7, 18] | Ragweed plant response rating [7, 20] | Plant response rating, Lambsquarters [11, 16] | Lambsquarters plant response rating [11, 20] | Plant response rating, Waterhemp [13, 19]
50: Plant response rating, Blackgrass [5, 18] | Plant response rating, Johnsongrass [9, 19] | Plant response rating, Kochia (kochia (Kochia scoparia); [14]) | Kochia plant response rating (kochia (Kochia scoparia); [15])
55: Plant response rating, Ryegrass, Italian [2, 18] | Plant response rating, Pigweed [4, 17]
65: Plant response rating, Pigweed [4, 14] | Blackgrass plant response rating [5, 15] | Plant response rating, Crabgrass, Large [12, 14]
